Measured values taken from patent publication US11377442B2, “Small molecule agonists and antagonists of NR2F6 activity” (ZANDER THERAPEUTICS, INC., priority 2016, dated 2022).
Like-named read-outs stand apart in the source and are kept apart here.

Assays:
Type in all cases: cell-based
HEK293 pGL4 = assay: Firefly_pGL signal, cmpd/DMSO (pGL4 control cells); details: Homo sapiens
NR2F6 = molecular target: T1, NR2F6 (Homo sapiens, UniProt P10588); assay: NR2F6 agonist screening, Firefly signal cmpd/DMSO
T1 construct: expressed in transfected cells; also transient transfection
T1 sequence (P10588 1-404): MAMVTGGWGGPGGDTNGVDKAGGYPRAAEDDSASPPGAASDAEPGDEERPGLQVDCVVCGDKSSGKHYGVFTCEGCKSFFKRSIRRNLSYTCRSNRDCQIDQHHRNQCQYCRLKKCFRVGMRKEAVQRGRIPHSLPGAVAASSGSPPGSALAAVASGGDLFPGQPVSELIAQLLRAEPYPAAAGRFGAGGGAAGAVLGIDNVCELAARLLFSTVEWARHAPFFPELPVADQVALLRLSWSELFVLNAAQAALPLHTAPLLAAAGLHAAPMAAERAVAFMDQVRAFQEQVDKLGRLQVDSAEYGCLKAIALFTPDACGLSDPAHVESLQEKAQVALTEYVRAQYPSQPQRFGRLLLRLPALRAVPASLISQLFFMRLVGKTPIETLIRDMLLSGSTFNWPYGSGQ

NR2F6 LBD = molecular target: T2, NR2F6 LBD (Homo sapiens, UniProt P10588); assay: NR2F6 LBD transient transfection; details: LBD
T2 construct: expressed in transfected cells
T2 sequence (P10588 165-393 limits assumed): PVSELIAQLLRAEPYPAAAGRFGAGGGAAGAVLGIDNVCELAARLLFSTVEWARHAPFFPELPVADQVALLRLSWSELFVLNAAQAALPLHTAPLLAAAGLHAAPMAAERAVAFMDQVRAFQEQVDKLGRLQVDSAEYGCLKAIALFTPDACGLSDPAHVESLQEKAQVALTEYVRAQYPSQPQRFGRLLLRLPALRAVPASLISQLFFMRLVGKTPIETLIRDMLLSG
In short: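 LBD-transfected cells treated at 40, 10, 2 and 0.5 μM (4 replicates); cytotoxicity measured in parallel, normalized to DMSO (0%) and zero signal (100%). Higher concentrations excluded where signal loss reflected toxicity.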

Renilla = Renilla signal in NR2F6 agonist screening, cmpd/DMSO; details: Renilla, F4
[1] = read-out: Renilla, F4, cmpd/DMSO (mean)
[2] = 1% FBS, read-out: Renilla, F4, 1% FBS, cmpd/DMSO (mean)
[3] = 10% FBS, read-out: Renilla, F4, 10% FBS, cmpd/DMSO (mean)

- Firefly F4, cmpd/DMSO (mean) (NR2F6; 0.5 uM): 1.4
- Firefly F4, cmpd/DMSO (mean) (NR2F6; 2 uM): 2.2
- Firefly F4, cmpd/DMSO (mean) (NR2F6; 10 uM): 4.0
- Firefly F4, cmpd/DMSO (mean) (NR2F6; 40 uM): 1.6
- F4, Firefly/Renilla for S/B(F4) > 3 (NR2F6; 1% FBS, 10 uM): 2.3
- Firefly, F4/pGL4 for S/B(F4) > 3 (NR2F6; 1% FBS, 10 uM): 1.8
- F4, Firefly/Renilla for S/B(F4) > 3 (NR2F6; 10% FBS, 10 uM): 2.7
- Firefly, F4/pGL4 for S/B(F4) > 3 (NR2F6; 10% FBS, 10 uM): 1.4
- F4, Firefly/Renilla for S/B(F4) > 3 (NR2F6; 10% FBS, 40 uM): 2.4
- Firefly, F4/pGL4 for S/B(F4) > 3 (NR2F6; 10% FBS, 40 uM): 2.0
- Firefly, F4, 1% FBS, cmpd/DMSO (mean) (NR2F6; 1% FBS, 0.5 uM): 0.7
- Firefly, F4, 1% FBS, cmpd/DMSO (mean) (NR2F6; 1% FBS, 2 uM): 1.2
- Firefly, F4, 1% FBS, cmpd/DMSO (mean) (NR2F6; 1% FBS, 10 uM): 3.6
- Firefly, F4, 1% FBS, cmpd/DMSO (mean) (NR2F6; 1% FBS, 40 uM): 0.6
- Firefly, F4, 10% FBS, cmpd/DMSO (mean) (NR2F6; 10% FBS, 0.5 uM): 1.1
- Firefly, F4, 10% FBS, cmpd/DMSO (mean) (NR2F6; 10% FBS, 2 uM): 1.2
- Firefly, F4, 10% FBS, cmpd/DMSO (mean) (NR2F6; 10% FBS, 10 uM): 3.4
- Firefly, F4, 10% FBS, cmpd/DMSO (mean) (NR2F6; 10% FBS, 40 uM): 5.0
- Firefly LBD, cmpd/DMSO (mean) (NR2F6 LBD; 0.5 uM): 1.1
- Firefly LBD, cmpd/DMSO (mean) (NR2F6 LBD; 2 uM): 1.7
- Firefly LBD, cmpd/DMSO (mean) (NR2F6 LBD; 10 uM): 3.1
- Firefly LBD, cmpd/DMSO (mean) (NR2F6 LBD; 40 uM): 0.7
Compound: O=S1(=O)C[C@H](NC2CCCCCC2)[C@@H](S(=O)(=O)c2ccc(Cl)cc2)C1 [Compound D130]
- fold induction at 0.5 µM (HEK293 pGL4; HEK293, 0.5 uM, pGL4, read-out: Firefly pGL4, cmpd/DMSO (mean)): 1.2
- fold induction at 2 µM (HEK293 pGL4; HEK293, 2 uM, pGL4, read-out: Firefly pGL4, cmpd/DMSO (mean)): 1.8
- fold induction at 10 µM (HEK293 pGL4; HEK293, 10 uM, pGL4, read-out: Firefly pGL4, cmpd/DMSO (mean)): 3.4
- fold induction at 40 µM (HEK293 pGL4; HEK293, 40 uM, pGL4, read-out: Firefly pGL4, cmpd/DMSO (mean)): 0.6
- fold induction at 0.5 µM (HEK293 pGL4; HEK293, pGL4, 1% FBS, 0.5 uM, read-out: Firefly, pGL4, 1% FBS, cmpd/DMSO (mean)): 1.2
- fold induction at 2 µM (HEK293 pGL4; HEK293, pGL4, 1% FBS, 2 uM, read-out: Firefly, pGL4, 1% FBS, cmpd/DMSO (mean)): 2
- fold induction at 10 µM (HEK293 pGL4; HEK293, pGL4, 1% FBS, 10 uM, read-out: Firefly, pGL4, 1% FBS, cmpd/DMSO (mean)): 2
- fold induction at 40 µM (HEK293 pGL4; HEK293, pGL4, 1% FBS, 40 uM, read-out: Firefly, pGL4, 1% FBS, cmpd/DMSO (mean)): 0.9
- fold induction at 0.5 µM (HEK293 pGL4; HEK293, pGL4, 10% FBS, 0.5 uM, read-out: Firefly, pGL4, 10% FBS, cmpd/DMSO (mean)): 1
- fold induction at 2 µM (HEK293 pGL4; HEK293, pGL4, 10% FBS, 2 uM, read-out: Firefly, pGL4, 10% FBS, cmpd/DMSO (mean)): 1.6
- fold induction at 10 µM (HEK293 pGL4; HEK293, pGL4, 10% FBS, 10 uM, read-out: Firefly, pGL4, 10% FBS, cmpd/DMSO (mean)): 2.5
- fold induction at 40 µM (HEK293 pGL4; HEK293, pGL4, 10% FBS, 40 uM, read-out: Firefly, pGL4, 10% FBS, cmpd/DMSO (mean)): 2.5
- fold induction at 0.5 µM (Renilla; [1]): 1.1
- fold induction at 2 µM (Renilla; [1]): 1.2
- fold induction at 10 µM (Renilla; [1]): 1.5
- fold induction at 40 µM (Renilla; [1]): 1.8
- fold induction at 0.5 µM (Renilla; [2]): 1.1
- fold induction at 2 µM (Renilla; [2]): 1.2
- fold induction at 10 µM (Renilla; [2]): 1.6
- fold induction at 40 µM (Renilla; [2]): 1.9
- fold induction at 0.5 µM (Renilla; [3]): 0.8
- fold induction at 2 µM (Renilla; [3]): 0.9
- fold induction at 10 µM (Renilla; [3]): 1.3
- fold induction at 40 µM (Renilla; [3]): 2.1
